Data published in the NIST ThermoML archive (doi:10.1016/j.jct.2012.03.003).

Assay: xn = mol fraction of the nth substance listed
Details: Liquid, Vibrating tube method

COc1cc2c(cc1O)CC1c3c(cc(O)c(OC)c3-2)CCN1C (stereo not given) [boldine] + CCCO
Details	mass density [kg/m3]
313.09 K, 1000 kPa, x1 = 0.0142	812.51
313.09 K, 2000 kPa, x1 = 0.0142	813.26
313.09 K, 3000 kPa, x1 = 0.0142	814.02
313.09 K, 4000 kPa, x1 = 0.0142	814.8
313.09 K, 5000 kPa, x1 = 0.0142	815.58
313.09 K, 6000 kPa, x1 = 0.0142	816.36
313.09 K, 7000 kPa, x1 = 0.0142	817.15
313.09 K, 8000 kPa, x1 = 0.0142	817.95
313.09 K, 9000 kPa, x1 = 0.0142	818.75
313.09 K, 10000 kPa, x1 = 0.0142	819.54
313.09 K, 11000 kPa, x1 = 0.0142	820.32
313.09 K, 12000 kPa, x1 = 0.0142	821.12
313.09 K, 13000 kPa, x1 = 0.0142	821.89
313.09 K, 14000 kPa, x1 = 0.0142	822.65
313.09 K, 15000 kPa, x1 = 0.0142	823.42
313.09 K, 16000 kPa, x1 = 0.0142	824.16
313.09 K, 17000 kPa, x1 = 0.0142	824.91
313.09 K, 18000 kPa, x1 = 0.0142	825.63
313.09 K, 19000 kPa, x1 = 0.0142	826.34
313.09 K, 20000 kPa, x1 = 0.0142	827.03
313.14 K, 1000 kPa, x1 = 0.0046	797.2
313.14 K, 2000 kPa, x1 = 0.0046	797.97
313.14 K, 3000 kPa, x1 = 0.0046	798.75
313.14 K, 4000 kPa, x1 = 0.0046	799.53
313.14 K, 5000 kPa, x1 = 0.0046	800.32
313.14 K, 6000 kPa, x1 = 0.0046	801.13
313.14 K, 7000 kPa, x1 = 0.0046	801.93
313.14 K, 8000 kPa, x1 = 0.0046	802.74
313.14 K, 9000 kPa, x1 = 0.0046	803.55
313.14 K, 10000 kPa, x1 = 0.0046	804.36
313.14 K, 11000 kPa, x1 = 0.0046	805.17
313.14 K, 12000 kPa, x1 = 0.0046	805.97
313.14 K, 13000 kPa, x1 = 0.0046	806.77
313.14 K, 14000 kPa, x1 = 0.0046	807.55
313.14 K, 15000 kPa, x1 = 0.0046	808.32
313.14 K, 16000 kPa, x1 = 0.0046	809.08
313.14 K, 17000 kPa, x1 = 0.0046	809.85
313.14 K, 18000 kPa, x1 = 0.0046	810.58
313.14 K, 19000 kPa, x1 = 0.0046	811.3
313.14 K, 20000 kPa, x1 = 0.0046	812.01
313.15 K, 1000 kPa, x1 = 0.0018	790.99
313.15 K, 1000 kPa, x1 = 0.0077	801.14
313.15 K, 1000 kPa, x1 = 0.0112	807.94
313.15 K, 2000 kPa, x1 = 0.0018	791.76
313.15 K, 2000 kPa, x1 = 0.0077	801.89
313.15 K, 2000 kPa, x1 = 0.0112	808.71
313.15 K, 3000 kPa, x1 = 0.0018	792.55
313.15 K, 3000 kPa, x1 = 0.0077	802.66
313.15 K, 3000 kPa, x1 = 0.0112	809.47
313.15 K, 4000 kPa, x1 = 0.0018	793.33
313.15 K, 4000 kPa, x1 = 0.0077	803.44
313.15 K, 4000 kPa, x1 = 0.0112	810.25
313.15 K, 5000 kPa, x1 = 0.0018	794.13
313.15 K, 5000 kPa, x1 = 0.0077	804.23
313.15 K, 5000 kPa, x1 = 0.0112	811.06
313.15 K, 6000 kPa, x1 = 0.0018	794.94
313.15 K, 6000 kPa, x1 = 0.0077	805.03
313.15 K, 6000 kPa, x1 = 0.0112	811.83
313.15 K, 7000 kPa, x1 = 0.0018	795.75
313.15 K, 7000 kPa, x1 = 0.0077	805.83
313.15 K, 7000 kPa, x1 = 0.0112	812.63
313.15 K, 8000 kPa, x1 = 0.0018	796.57
313.15 K, 8000 kPa, x1 = 0.0077	806.63
313.15 K, 8000 kPa, x1 = 0.0112	813.42
313.15 K, 9000 kPa, x1 = 0.0018	797.38
313.15 K, 9000 kPa, x1 = 0.0077	807.44
313.15 K, 9000 kPa, x1 = 0.0112	814.2
313.15 K, 10000 kPa, x1 = 0.0018	798.19
313.15 K, 10000 kPa, x1 = 0.0077	808.25
313.15 K, 10000 kPa, x1 = 0.0112	815
313.15 K, 11000 kPa, x1 = 0.0018	799.01
313.15 K, 11000 kPa, x1 = 0.0077	809.05
313.15 K, 11000 kPa, x1 = 0.0112	815.81
313.15 K, 12000 kPa, x1 = 0.0018	799.83
313.15 K, 12000 kPa, x1 = 0.0077	809.85
